From the supplement of paper PMC8671470
± gives the standard deviation of the averaged measurements.

Experiments:
Conditions in all cases: 72 h
[1] = tested on: myeloid leukemia patient primary cells Pat.2; test: cell viability (% survival relative to DMSO control); higher = less cytotoxic
Summary of the method: (§1)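 Mononuclear cells from patients with AML or CML were thawed, purified on Ficoll and placed in RPMI 1640 with 10% FBS at 10,000 cells/well on 384-well plates. The plates came pre-printed with 70 compounds at five tenfold concentrations spanning 1–10,000 nM, in duplicate, and cells were exposed for 72 h. CellTiter-Glo gave viability, scaled between DMSO wells and wells with 10 μM proteasome inhibitor. Where reported, area under the curve was obtained from log-logistic fits with four parameters using the drc and PharmacoGx R packages.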

[2] = tested on: myeloid leukemia patient primary cells Pat.14; test: as above
Summary of the method: as §1

[3] = tested on: myeloid leukemia patient primary cells Pat.12; test: as above
Summary of the method: as §1

[4] = tested on: myeloid leukemia patient primary cells Pat.8; test: as above
Summary of the method: as §1

[5] = tested on: myeloid leukemia patient primary cells Pat.15; test: as above
Summary of the method: as §1

[6] = tested on: myeloid leukemia patient primary cells Pat.13; test: as above
Summary of the method: as §1

HL-60 [7] = test: cell viability (% survival relative to DMSO control); higher = less cytotoxic
Summary of the method: (§2)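 Four-parameter log-logistic fits in drc and PharmacoGx supplied area under the curve where it is given. Underlying viability came from CellTiter-Glo, normalised to DMSO and proteasome-inhibitor wells, with the proteasome inhibitor at 10 μM. HL-60 cells in RPMI 1640 plus 10% FBS had been rescreened against the full library at five tenfold concentrations of 1–10,000 nM, in duplicate on 384-well plates, with DMSO or 100 nM of one of three metabolic inhibitors, for 72 h at 37 °C, 5% CO2.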

[8] = tested on: myeloid leukemia patient primary cells Pat.5; test: area under dose-response curve (viability, 1 nM-10 uM) (fraction (0-1)); higher = more sensitive
Experimental: (§3)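 AUC (0–1, higher = more sensitive) of the 5-point dose–response (1 nM–10 µM, 72 h, CellTiter-Glo) in primary AML/CML patient mononuclear cells. 0.030103 is the floor for inactive compounds.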

[9] = tested on: myeloid leukemia patient primary cells Pat.3; test: as above
Experimental: as §3

[10] = tested on: myeloid leukemia patient primary cells Pat.4; test: as above
Experimental: as §3

[11] = tested on: myeloid leukemia patient primary cells Pat.2; test: as above
Experimental: as §3

[12] = tested on: myeloid leukemia patient primary cells Pat.14; test: as above
Experimental: as §3

[13] = tested on: myeloid leukemia patient primary cells Pat.7; test: as above
Experimental: as §3

[14] = tested on: myeloid leukemia patient primary cells Pat.12; test: as above
Experimental: as §3

[15] = tested on: myeloid leukemia patient primary cells Pat.6; test: as above
Experimental: as §3

[16] = tested on: myeloid leukemia patient primary cells Pat.11; test: as above
Experimental: as §3

[17] = tested on: myeloid leukemia patient primary cells Pat.8; test: as above
Experimental: as §3

[18] = tested on: myeloid leukemia patient primary cells Pat.10; test: as above
Experimental: as §3

[19] = tested on: myeloid leukemia patient primary cells Pat.9; test: as above
Experimental: as §3

[20] = tested on: myeloid leukemia patient primary cells Pat.1; test: as above
Experimental: as §3

[21] = tested on: myeloid leukemia patient primary cells Pat.15; test: as above
Experimental: as §3

[22] = tested on: myeloid leukemia patient primary cells Pat.13; test: as above
Experimental: as §3

HL-60 [23] = test: area under dose-response curve (viability, 1 nM-10 uM) (fraction (0-1)); higher = more sensitive
Summary of the method: as §2

CC(=O)Nc1nc(C)c(-c2ccc(Cl)c(S(=O)(=O)NCCO)c2)s1 [PIK93]
Conditions	area under dose-response curve, co-treatment: AZD3965 100 nM	area under dose-response curve, co-treatment: DMSO vehicle	area under dose-response curve, co-treatment: GSK2194069 100 nM	area under dose-response curve, co-treatment: pictilisib 100 nM	cell viability, 1 nM [%]	cell viability, 10 nM [%]	cell viability, 100 nM [%]	cell viability, 1000 nM [%]	cell viability, 10000 nM [%]
HL-60 [23]	0.172	0.135	0.154	0.181	–	–	–	–	–
[1]	–	–	–	–	94.4	44.8	95.8	65.5	47.8
[2]	–	–	–	–	72.6	2.07	52.8	63.9	38.6
[3]	–	–	–	–	94.1	92.3	95.9	88.3	79
[4]	–	–	–	–	86.5	81.9	87.9	64.2	48.8
[5]	–	–	–	–	83.6	92.9	65.4	9.62	2.38
[6]	–	–	–	–	91.2	35.4	61.6	54.3	14.4

cell viability [%], HL-60 [7]
Conditions	0.001 µM	0.01 µM	0.1 µM	1 µM	10 µM
co-treatment: AZD3965 100 nM	102.8 ± 0.77	103 ± 16	100 ± 9.8	77.3 ± 2	13.3 ± 3.1
co-treatment: DMSO vehicle	98.3 ± 2.1	101 ± 3.5	99.6 ± 1.7	85.1 ± 1.8	23.5 ± 5.9
co-treatment: GSK2194069 100 nM	102 ± 4	106 ± 5.3	103 ± 1.6	81.7 ± 1.3	18.2 ± 3.4
co-treatment: pictilisib 100 nM	102 ± 8.8	107 ± 2.6	97 ± 8.8	70.2 ± 3.8	16.6 ± 4

Conditions	area under dose-response curve
[8]	0.907
[9]	0.545
[10]	0.401
[11]	0.0748
[12]	0.139
[13]	0.16
[14]	< 0.0301
[15]	0.0757
[16]	0.204
[17]	0.0853
[18]	0.728
[19]	0.82
[20]	0.365
[21]	0.417
[22]	0.214

CC(C)(C)c1ccc(S(=O)(=O)NCc2ccc(C(=O)Nc3cccnc3)cc2)cc1 [STF-31]
Conditions	area under dose-response curve, co-treatment: AZD3965 100 nM	area under dose-response curve, co-treatment: DMSO vehicle	area under dose-response curve, co-treatment: GSK2194069 100 nM	area under dose-response curve, co-treatment: pictilisib 100 nM	cell viability, 1 nM [%]	cell viability, 10 nM [%]	cell viability, 100 nM [%]	cell viability, 1000 nM [%]	cell viability, 10000 nM [%]
HL-60 [23]	0.328	0.342	0.362	0.324	–	–	–	–	–
[1]	–	–	–	–	98.4	96.8	84.9	13.2	11.4
[2]	–	–	–	–	74.9	62.1	9.36	1.38	< 0
[3]	–	–	–	–	96.2	96.2	92.7	7.74	4.47
[4]	–	–	–	–	97.5	87	63	6.59	9.06
[5]	–	–	–	–	87.8	90.9	89.8	2.3	1.11
[6]	–	–	–	–	94.8	87.8	87.7	8.95	9.54

cell viability [%], HL-60 [7]
Conditions	0.001 µM	0.01 µM	0.1 µM	1 µM	10 µM
co-treatment: AZD3965 100 nM	104 ± 5.3	95.82 ± 0.71	94.3 ± 5.3	20.9 ± 0.83	2.06 ± 0.56
co-treatment: DMSO vehicle	104 ± 1.7	94.1 ± 1.3	108 ± 3.8	10.1 ± 3.2	4.63 ± 2.2
co-treatment: GSK2194069 100 nM	101 ± 1.4	98.62 ± 0.24	99.7 ± 7	6.72 ± 0.56	2.51 ± 0.88
co-treatment: pictilisib 100 nM	100 ± 2.9	93.2 ± 6.9	105 ± 26	18 ± 18	3.08 ± 1

Conditions	area under dose-response curve
[8]	0.896
[9]	0.745
[10]	0.567
[11]	0.367
[12]	0.653
[13]	0.66
[14]	0.366
[15]	0.357
[16]	0.368
[17]	0.433
[18]	0.449
[19]	0.8
[20]	0.267
[21]	0.375
[22]	0.358

CO[C@H]1C[C@@H]2CC[C@@H](C)[C@@](O)(O2)C(=O)C(=O)N2CCCC[C@H]2C(=O)O[C@H]([C@H](C)C[C@@H]2CC[C@@H](OCCO)[C@H](OC)C2)CC(=O)[C@H](C)/C=C(\C)[C@@H](O)[C@@H](OC)C(=O)[C@H](C)C[C@H](C)/C=C/C=C/C=C/1C [Everolimus]
Conditions	area under dose-response curve, co-treatment: AZD3965 100 nM	area under dose-response curve, co-treatment: DMSO vehicle	area under dose-response curve, co-treatment: GSK2194069 100 nM	area under dose-response curve, co-treatment: pictilisib 100 nM	cell viability, 1 nM [%]	cell viability, 10 nM [%]	cell viability, 100 nM [%]	cell viability, 1000 nM [%]	cell viability, 10000 nM [%]
HL-60 [23]	< 0.0301	< 0.0301	< 0.0301	< 0.0301	–	–	–	–	–
[1]	–	–	–	–	82.6	83.8	74.4	82.3	68.2
[2]	–	–	–	–	90.7	53.5	96.7	59.3	17.4
[3]	–	–	–	–	96.2	> 100	> 100	93.7	99
[4]	–	–	–	–	67.6	68.8	56.4	80.7	66.5
[5]	–	–	–	–	62.3	44.6	36.8	40	22.9
[6]	–	–	–	–	82.2	82.6	74.8	79.3	43.1

cell viability [%], HL-60 [7]
Conditions	0.001 µM	0.01 µM	0.1 µM	1 µM	10 µM
co-treatment: AZD3965 100 nM	100 ± 6.7	95.63 ± 0.34	97.03 ± 0.86	93.2 ± 4.7	83.2 ± 1.6
co-treatment: DMSO vehicle	84.2 ± 18	90.5 ± 1.8	93.85 ± 0.55	98.3 ± 2.2	93.8 ± 1.1
co-treatment: GSK2194069 100 nM	85.1 ± 22	88.9 ± 7.1	97.9 ± 1.7	110.7 ± 0.65	88.4 ± 4.7
co-treatment: pictilisib 100 nM	78.7 ± 28	88.7 ± 4.8	87.9 ± 1.3	89.2 ± 3.6	72.1 ± 3.1

Conditions	area under dose-response curve
[8]	0.808
[9]	0.746
[10]	0.413
[11]	0.0353
[12]	0.177
[13]	0.139
[14]	< 0.0301
[15]	0.0682
[16]	< 0.0301
[17]	< 0.0301
[18]	0.604
[19]	0.319
[20]	0.122
[21]	0.625
[22]	0.0367
